This is an account of results in PubChem BioAssay (NCI).

Some test systems named below: MALME-3M melanoma; HCT-15 colon; A549 NSCLC; MDA-MB-435; NCI-H522 lung; SK-MEL-2 melanoma; SN12C renal; HCC-2998 colon; HOP-62 NSCLC; U251 CNS.
What all share (assay): inhibition of tumour cell growth, NCI panel, 48 h

Several values for one entry are separate records, joined by “and”; a condition that tells them apart may be missing. Equal entries are not always repeated.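 Five concentrations, 48 hours, 96-well plates. The concentration for 50% growth inhibition is given as GI50. TGI: concentration producing complete growth inhibition.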

On to `O=C(NNc1ccccc1)c1ccc(Cl)c(Cl)c1`, for which the TGI in the experiment on MALME-3M melanoma is greater than 92.5 µM; in the experiment with HCT-15 colon, greater than 100 µM; in the experiment on A549 NSCLC it was greater than 100 µM; in the experiment with MDA-MB-435 it was greater than 100 µM; in the experiment on NCI-H522 lung it was 23 µM; in the experiment with SK-MEL-2 melanoma, 36.2 µM. The TGI in the experiment on SN12C renal is greater than 100 µM; in the experiment with HCC-2998 colon, greater than 40.9 µM; with HOP-62 NSCLC it was greater than 100 µM; in the experiment on U251 CNS, greater than 100 µM.

With `Cc1c(Cl)cccc1NC(=O)c1sc2nc3c(cc2c1N)C(=O)CCC3`, the GI50 was 0.0363 µM with MALME-3M melanoma; 0.0665 µM in the experiment with HCT-15 colon; 0.0619 µM in the experiment on A549 NSCLC; 0.0203 µM with MDA-MB-435; 0.0204 µM in the experiment with NCI-H522 lung; 0.044 µM in the experiment on SK-MEL-2 melanoma. Also, the GI50 is 0.124 µM in the experiment on SN12C renal, 0.201 µM in the experiment with HCC-2998 colon, 0.102 µM with HOP-62 NSCLC and 0.0836 µM in the experiment with U251 CNS. Also, the TGI is greater than 100 µM in the experiment with MALME-3M melanoma; greater than 100 µM in the experiment on HCT-15 colon; greater than 100 µM in the experiment with A549 NSCLC; 0.0488 µM in the experiment with MDA-MB-435; 0.395 µM in the experiment with NCI-H522 lung; greater than 56 µM in the experiment with SK-MEL-2 melanoma. In addition, the TGI was greater than 100 µM with SN12C renal, greater than 60 µM in the experiment on HCC-2998 colon, 29.8 µM in the experiment with HOP-62 NSCLC and greater than 37.4 µM in the experiment with U251 CNS.

Regarding `NC(Cc1cccnn1)C(=O)O` (stereo not drawn), the TGI in the experiment with MALME-3M melanoma, in the experiment with HCT-15 colon, in the experiment on A549 NSCLC, in the experiment on MDA-MB-435, with NCI-H522 lung and in the experiment with SK-MEL-2 melanoma was greater than 100 µM in each case. For the same compound, the TGI with SN12C renal, with HCC-2998 colon, with HOP-62 NSCLC and in the experiment with U251 CNS was greater than 100 µM each time.

As to `O=C1c2ccn(CCCNC(CO)(CO)CO)c2C(=O)c2c1c(O)c1ccccc1c2O`, the GI50 in the experiment on MALME-3M melanoma was 22.7 µM; with HCT-15 colon it was 14.2 µM; in the experiment with A549 NSCLC, 16.9 µM; in the experiment on MDA-MB-435, 34.1 µM; in the experiment on NCI-H522 lung, 12.9 µM; in the experiment on SK-MEL-2 melanoma, 23.1 µM. In addition, the GI50 with SN12C renal is 3.16 µM; in the experiment with HCC-2998 colon it was 2.52 µM; with HOP-62 NSCLC, 2.43 µM; in the experiment on U251 CNS it was 15.2 µM. Besides, the TGI is 74.3 µM with MALME-3M melanoma; 28.6 µM in the experiment with HCT-15 colon; 36.8 µM in the experiment with A549 NSCLC; greater than 65.4 µM with MDA-MB-435; 46.6 µM in the experiment with NCI-H522 lung; 68.8 µM with SK-MEL-2 melanoma. In addition, the TGI in the experiment on SN12C renal came to 17.9 µM; with HCC-2998 colon, 8.2 µM; in the experiment with HOP-62 NSCLC, 17.9 µM; in the experiment with U251 CNS, 36.6 µM.

With `COc1ccc(/C=C\c2cc(OC)c(OC)c(OC)c2)cc1OC(=O)CC(N)C(=O)O` (stereo not drawn), the GI50 in the experiment with MALME-3M melanoma is 0.00102 µM; in the experiment on HCT-15 colon, 0.000452 µM; in the experiment with A549 NSCLC, 0.00304 µM; in the experiment on NCI-H522 lung, 0.000424 µM; in the experiment on SK-MEL-2 melanoma it was 0.00151 µM and 0.00249 µM; with SN12C renal, 0.00412 µM. Further, the GI50 is 0.0951 µM in the experiment with HCC-2998 colon and 0.000352 µM in the experiment with U251 CNS. Moreover, the TGI with A549 NSCLC was 49.5 µM; with MDA-MB-435, 0.000316 µM; in the experiment on NCI-H522 lung, 0.00157 µM and 0.00192 µM; in the experiment on SK-MEL-2 melanoma it was 0.00812 µM; in the experiment with SN12C renal it was greater than 100 µM; in the experiment on HCC-2998 colon, greater than 100 µM. For the same compound, the TGI was greater than 100 µM in the experiment with HOP-62 NSCLC; 0.00855 µM and 0.0702 µM with U251 CNS.

On to `O=C(NCCCl)Nc1ccccc1`, for which the TGI with MALME-3M melanoma, with HCT-15 colon, in the experiment on A549 NSCLC, in the experiment with MDA-MB-435, in the experiment with NCI-H522 lung and in the experiment on SK-MEL-2 melanoma was greater than 100 µM throughout. In addition, the TGI with SN12C renal, in the experiment on HCC-2998 colon, with HOP-62 NSCLC and with U251 CNS was greater than 100 µM throughout.

Regarding `COc1c(B(O)O)cccc1-c1nc2ccc3[nH]ncc3c2c2c1CCCC2`, the GI50 in the experiment with MALME-3M melanoma is 3.39 µM; in the experiment with HCT-15 colon it was 2.88 µM; in the experiment on A549 NSCLC, 2.55 µM; with MDA-MB-435, 3.45 µM; with NCI-H522 lung it was 1.41 µM; with SK-MEL-2 melanoma, 3.4 µM. The GI50 was 1.77 µM with SN12C renal, 2.35 µM in the experiment with HCC-2998 colon, 1.31 µM in the experiment on HOP-62 NSCLC and 2.69 µM with U251 CNS. Also, the TGI is 6.86 µM in the experiment with MALME-3M melanoma; 14.2 µM with HCT-15 colon; greater than 34.9 µM in the experiment with A549 NSCLC; 12.1 µM in the experiment on MDA-MB-435; 10.5 µM in the experiment with NCI-H522 lung; 8.78 µM in the experiment with SK-MEL-2 melanoma. Also, the TGI in the experiment on SN12C renal stood at 42.7 µM; with HCC-2998 colon, 6.12 µM; with HOP-62 NSCLC it was 19.6 µM; in the experiment with U251 CNS it was 18.5 µM.

In the case of `Cc1c(NC(=O)Nc2c(Cl)cccc2Cl)c(=O)n(-c2ccccc2)n1C`, the TGI with MALME-3M melanoma, in the experiment on HCT-15 colon, with A549 NSCLC, in the experiment with MDA-MB-435, in the experiment on NCI-H522 lung and with SK-MEL-2 melanoma was greater than 100 µM throughout. Also, the TGI in the experiment on SN12C renal, in the experiment on HOP-62 NSCLC and in the experiment with U251 CNS was greater than 100 µM in each case.

For `COc1ccc2c(CCCc3ccc(Cl)cc3Cl)c3[n+](cc2c1OC)CCc1cc2c(cc1-3)OCO2`, the GI50 with HCT-15 colon is 1.72 µM; in the experiment on MDA-MB-435, 0.322 µM; in the experiment on HCC-2998 colon it was 0.638 µM. Moreover, the values for the TGI in the experiment with HCT-15 colon, in the experiment on MDA-MB-435 and with HCC-2998 colon were 3.29 µM, 1.31 µM and 1.95 µM, respectively.

Consider `Cc1cc(-c2nc3n(c2/C=N/N=C(N)N)CCS3)c(C)s1`, for which the GI50 with HCT-15 colon is 14.8 µM; in the experiment on A549 NSCLC it was 15.7 µM; in the experiment on MDA-MB-435, 18.5 µM; in the experiment on SN12C renal, 14.9 µM; with HOP-62 NSCLC, 17.5 µM; in the experiment on U251 CNS, 15.6 µM. For the same compound, the TGI with HCT-15 colon worked out at 28 µM; in the experiment with A549 NSCLC, 44.3 µM; in the experiment on MDA-MB-435, 32.5 µM; in the experiment on SN12C renal, 28.9 µM; in the experiment with HOP-62 NSCLC it was 31.3 µM; in the experiment on U251 CNS, 32.1 µM.
